Test results: patent US10183950B2, “Thienopyrimidine inhibitors of atypical protein kinase C” (Cancer Research Technology Limited, priority 2011, dated 2019)
Read-outs that look alike come from different tables or passages of the source.

Biological target: T1, kinase-domain human PKCι (Homo sapiens, UniProt P41743)
T1 construct: Recombinant, kinase-domain human PKCι is expressed and purified in-house; made in house
T1 sequence (P41743 254-522 limits assumed): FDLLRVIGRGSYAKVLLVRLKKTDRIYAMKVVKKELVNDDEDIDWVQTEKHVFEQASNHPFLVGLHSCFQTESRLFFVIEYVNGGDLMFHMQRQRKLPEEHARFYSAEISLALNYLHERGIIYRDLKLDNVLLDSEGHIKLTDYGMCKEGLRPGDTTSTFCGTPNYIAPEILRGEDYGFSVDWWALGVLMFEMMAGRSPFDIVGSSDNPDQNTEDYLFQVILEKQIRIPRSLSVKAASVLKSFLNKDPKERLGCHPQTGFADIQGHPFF
Assay: PKCι IC50 IMAP fluorescence polarisation assay, kinase-domain enzyme
Assay type: biochemical
Details: kinase domain PKCi at 2 μM ATP
Method: Assays are based on the ability of PKCι to phosphorylate a commercially available peptide substrate in vitro. […] Recombinant, full-length human PKCι expressed in Sf21 insect cells is also commercially available. Recombinant, kinase-domain human PKCι is expressed and purified in-house.
The procedure below explains how dose response curves for inhibitors of PKCι are obtained.
Compounds to be tested are dissolved in 100% DMSO. […] 1 μl is plated into 384 well black low-binding flat bottomed assay plates which are used immediately. Dilutions and additions of compound to assay plates are carried out using Matrix WellMate® and Matrix PlateMate® Plus liquid handling systems.
The final concentration of peptide substrate in the assay is 100 nM. […] Relevant controls are included, namely no compound and no enzyme. […] The reaction is allowed to incubate for 60 minutes at room temperature, before the reaction is stopped and developed by the addition of 20 μl IMAP™ development reagent (Molecular Devices). IMAP development reagent consists of 0.25% (v/v) IMAP progressive binding reagent, 17% (v/v) IMAP progressive binding buffer A and 3% (v/v) IMAP progressive binding buffer B. The plates are then incubated for 2 hours at room temperature before being read using an appropriate plate reader, for example a Molecular Devices HT Analyst or a BMG Pherastar.

[1] = read-out: IC50 in IMAP assay against kinase domain PKCi (Activity)
[2] = read-out: IC50 in IMAP assay against kinase domain PKCi

Row | Compound | IC50 [1] [µM] | IC50 [2] [µM]
1 | Oc1cccc(CN2CCN(c3nc(-c4ccncc4)nc4sc5c(c34)CCCC5)CC2)c1 [compound 126, 3-[4-(2-Pyridin-4-yl-5,6,7,8-tetrahydro-benzo[4,5]thieno[2,3-d]pyrimidin-4-yl)-piperazin-1-ylmethyl]-phenol] | 10 to 40 | –
2 | Cc1csc2c(N3CCCNCC3)nc(-c3ccncc3)nc12 [compound 362, 4-[1,4]Diazepan-1-yl-7-methyl-2-pyridin-4-yl-thieno[3,2-d]pyrimidine] | – | 0.1 to 1
3 | C[C@@H]1CN(c2nc(-c3ccncc3)nc3sc4c(c23)CCCC4)C[C@H](C)N1 [compound 9, 4-((3R,5S)-3,5-Dimethyl-piperazin-1-yl)-2-pyridin-4-yl-5,6,7,8-tetrahydro-benzo[4,5]thieno[2,3-d]pyrimidine] | 1 to 10 | –
4 | N[C@H](COc1nc(-c2ccncc2)nc2sc3c(c12)CCCC3)Cc1ccccc1F [compound 164, (S)-1-(2-Fluoro-benzyl)-2-(2-pyridin-4-yl-5,6,7,8-tetrahydro-benzo[4,5]thieno[2,3-d]pyrimidin-4-yloxy)-ethylamine] | 1 to 10 | –
5 | N[C@H](COc1nc(-c2ccncc2)nc2sc3c(c12)CCCC3)Cc1csc2ccccc12 [compound 177, (S)-1-Benzo[b]thiophen-3-ylmethyl-2-(2-pyridin-4-yl-5,6,7,8-tetrahydro-benzo[4,5]thieno[2,3-d]pyrimidin-4-yloxy)-ethylamine] | 10 to 40 | –
6 | c1ccc(CN2CCN(c3nc(-c4ccncc4)nc4sc5c(c34)CCCC5)CC2)nc1 [compound 120, 2-Pyridin-4-yl-4-(4-pyridin-2-ylmethyl-piperazin-1-yl)-5,6,7,8-tetrahydro-benzo[4,5]thieno[2,3-d]pyrimidine] | 10 to 40 | –
7 | c1n[nH]cc1-c1nc(N[C@@H]2CCNC2)c2c3c(sc2n1)CCCC3 [compound 189, [2-(1H-Pyrazol-4-yl)-5,6,7,8-tetrahydro-benzo[4,5]thieno[2,3-d]pyrimidin-4-yl]-(R)-pyrrolidin-3-yl-amine] | 0.1 to 1 | –
8 | Clc1cccc2sc3c(N4CCNCC4)nc(-c4ccncc4)nc3c12 [compound 387, 9-Chloro-4-piperazin-1-yl-2-pyridin-4-yl-benzo[4,5]thieno[3,2-d]pyrimidine] | – | 0.1 to 1
9 | C[C@@H](N)CNc1nc(-c2ccncc2)nc2c1sc1cccc(Cl)c12 [compound 374, (R)-N*1*-(9-Chloro-2-pyridin-4-yl-benzo[4,5]thieno[3,2-d]pyrimidin-4-yl)-propane-1,2-diamine] | – | 0.1 to 1
10 | Clc1cccc2sc3c(N4CCCNCC4)nc(-c4ccncc4)nc3c12 [compound 371, 9-Chloro-4-[1,4]diazepan-1-yl-2-pyridin-4-yl-benzo[4,5]thieno[3,2-d]pyrimidine] | – | 0.1 to 1
11 | C[C@H](N)CNc1nc(-c2ccncc2)nc2sc3c(c12)CCCCC3 [compound 88, (S)-N*1*-(2-Pyridin-4-yl-6,7,8,9-tetrahydro-5H-10-thia-1,3-diaza-benzo[a]azulen-4-yl)-propane-1,2-diamine] | 0.1 to 1 | –
12 | CSCC[C@@H](N)CNc1nc(-c2ccncc2)nc2sc3c(c12)CCCC3 [compound 6, (R)-4-Methylsulfanyl-N*1*- (2-pyridin-4-yl-5,6,7,8-tetrahydro-benzo[4,5]thieno[2,3-d]pyrimidin-4-yl)-butane-1,2-diamine] | 1 to 10 | –
13 | CCc1cc2c(NC[C@@H](C)N)nc(-c3ccncc3)nc2s1 [compound 35, (R)-N*1*-(6-Ethyl-2-pyridin-4-yl-thieno[2,3-d]pyrimidin-4-yl)-propane-1,2-diamine] | 1 to 10 | –
14 | N[C@@H](COc1nc(-c2ccncc2)nc2c1sc1cccc(Cl)c12)Cc1ccccc1 [compound 477, (R)-1-(9-Chloro-2-pyridin-4-yl-benzo[4,5]thieno[3,2-d]pyrimidin-4-yloxymethyl)-2-phenyl-ethylamine] | – | 10 to 40
15 | c1n[nH]cc1-c1nc(N2CCNCC2)c2c3c(sc2n1)CCCC3 [compound 185, 4-Piperazin-1-yl-2-(1H-pyrazol-4-yl)-5,6,7,8-tetrahydro-benzo[4,5]thieno[2,3-d]pyrimidine] | 0.1 to 1 | –
16 | CC(C)c1cc2c(NC[C@@H](N)Cc3ccccc3)nc(-c3ccncc3)nc2s1 [compound 75, (S)-N*1*-(6-Isopropyl-2-pyridin-4-yl-thieno[2,3-d]pyrimidin-4-yl)-3-phenyl-propane-1,2-diamine] | 1 to 10 | –

Row | Compound | IC50 [1] [µM] | IC50 [2] [µM]
17 | CCCCN1CCN(c2nc(-c3ccncc3)nc3sc4c(c23)CCCC4)CC1 [compound 129, 4-(4-Butyl-piperazin-1-yl)-2-pyridin-4-yl-5,6,7,8-tetrahydro-benzo[4,5]thieno[2,3-d]pyrimidine] | 10 to 40 | –
18 | C[C@@H](N)COc1nc(-c2ccncc2)nc2sc3c(c12)CCCC3 [compound 145, (R)-1-Methyl-2-(2-pyridin-4-yl-5,6,7,8-tetrahydro-benzo[4,5]thieno[2,3-d]pyrimidin-4-yloxy)-ethylamine] | 1 to 10 | –
19 | CC1CCc2c(sc3nc(-c4ccncc4)nc(NC[C@H](C)N)c23)C1 (stereo partly drawn) [compound 22, (S)-N*1*-(7-Methyl-2-pyridin-4-yl-5,6,7,8-tetrahydro-benzo[4,5]thieno[2,3-d]pyrimidin-4-yl)-propane-1,2-diamine] | 1 to 10 | –
20 | Brc1ccc(CN2CCN(c3nc(-c4ccncc4)nc4sc5c(c34)CCCC5)CC2)cc1 [compound 117, 4-[4-(4-Bromo-benzyl)-piperazin-1-yl]-2-pyridin-4-yl-5,6,7,8-tetrahydro-benzo[4,5]thieno[2,3-d]pyrimidine] | 10 to 40 | –
21 | NCCNc1nc(-c2ccncc2)nc2c1sc1cccc(Cl)c12 [compound 386, N*1*-(9-Chloro-2-pyridin-4-yl-benzo[4,5]thieno[3,2-d]pyrimidin-4-yl)-ethane-1,2-diamine] | – | 0.1 to 1
22 | Cc1csc2c(NC[C@H](C)N)nc(-c3ccncc3)nc12 [compound 361, (S)-N*1*-(7-Methyl-2-pyridin-4-yl-thieno[3,2-d]pyrimidin-4-yl)-propane-1,2-diamine] | – | 0.1 to 1
23 | Cc1cc(C)c2c(n1)sc1c(N3CCCNCC3)nc(-c3ccncc3)nc12 [compound 381, 4-[1,4]Diazepan-1-yl-7,9-dimethyl-2-pyridin-4-yl-pyrido[3′,2′:4,5]thieno[3,2-d]pyrimidine] | – | 1 to 10
24 | Clc1ccc(CN2CCN(c3nc(-c4ccncc4)nc4sc5c(c34)CCCC5)CC2)cc1 [compound 122, 4-[4-(4-Chloro-benzyl)-piperazin-1-yl]-2-pyridin-4-yl-5,6,7,8-tetrahydro-benzo[4,5]thieno[2,3-d]pyrimidine] | 10 to 40 | –
25 | Cc1n[nH]c(C)c1-c1nc(NC[C@H](C)N)c2c3c(sc2n1)CCCC3 [compound 192, (S)-N*1*-[2-(3,5-Dimethyl-1H-pyrazol-4-yl)-5,6,7,8-tetrahydro-benzo[4,5]thieno[2,3-d]pyrimidin-4-yl]-propane-1,2-diamine] | 1 to 10 | –
26 | N[C@@H](COc1nc(-c2ccncc2)nc2sc3c(c12)CCCC3)Cc1cccc2ccccc12 [compound 173, (R)-1-Naphthalen-1-ylmethyl-2-(2-pyridin-4-yl-5,6,7,8-tetrahydro-benzo[4,5]thieno[2,3-d]pyrimidin-4-yloxy)-ethylamine] | 1 to 10 | –
27 | Cc1csc2c(O[C@H]3CCNC3)nc(-c3ccncc3)nc12 [compound 483, 7-Methyl-2-pyridin-4-yl-4-((S)-pyrrolidin-3-yloxy)-thieno[3,2-d]pyrimidine] | – | 10 to 40
28 | Cc1csc2c(O[C@@H]3CCNC3)nc(-c3ccncc3)nc12 [compound 484, 7-Methyl-2-pyridin-4-yl-4-((R)-pyrrolidin-3-yloxy)-thieno[3,2-d]pyrimidine] | – | 1 to 10
29 | Clc1cccc2sc3c(N[C@@H]4CCNC4)nc(-c4ccncc4)nc3c12 [compound 384, (9-Chloro-2-pyridin-4-yl-benzo[4,5]thieno[3,2-d]pyrimidin-4-yl)-(R)-pyrrolidin-3-yl-amine] | – | 1 to 10
30 | CC(C)C[C@@H](N)CNc1nc(-c2ccncc2)nc2sc3c(c12)CCCC3 [compound 16, (R)-4-Methyl-N*1*-(2-pyridin-4-yl-5,6,7,8-tetrahydro-benzo[4,5]thieno[2,3-d]pyrimidin-4-yl)-pentane-1,2-diamine] | 1 to 10 | –
31 | Cc1cccc(C[C@H](N)COc2nc(-c3ccncc3)nc3sc4c(c23)CCCC4)c1 [compound 165, (S)-1-(3-Methyl-benzyl)-2-(2-pyridin-4-yl-5,6,7,8-tetrahydro-benzo[4,5]thieno[2,3-d]pyrimidin-4-yloxy)-ethylamine] | 1 to 10 | –
32 | N[C@H](COc1nc(-c2ccncc2)nc2sc3c(c12)CCCC3)Cc1cccs1 [compound 168, (S)-2-(2-Pyridin-4-yl-5,6,7,8-tetrahydro-benzo[4,5]thieno[2,3-d]pyrimidin-4-yloxy)-1-thiophen-2-ylmethyl-ethylamine] | 1 to 10 | –
